In one test the target is LPA1 (hLPA1) (Homo sapiens, UniProt Q92633). The test is classed as biochemical. As to conditions: read-out: Ki; cell membranes.
Another test deals with T1, LPA3 (hLPA3) (Homo sapiens, UniProt Q9UBY5).
T1 sequence (Q9UBY5 1-353): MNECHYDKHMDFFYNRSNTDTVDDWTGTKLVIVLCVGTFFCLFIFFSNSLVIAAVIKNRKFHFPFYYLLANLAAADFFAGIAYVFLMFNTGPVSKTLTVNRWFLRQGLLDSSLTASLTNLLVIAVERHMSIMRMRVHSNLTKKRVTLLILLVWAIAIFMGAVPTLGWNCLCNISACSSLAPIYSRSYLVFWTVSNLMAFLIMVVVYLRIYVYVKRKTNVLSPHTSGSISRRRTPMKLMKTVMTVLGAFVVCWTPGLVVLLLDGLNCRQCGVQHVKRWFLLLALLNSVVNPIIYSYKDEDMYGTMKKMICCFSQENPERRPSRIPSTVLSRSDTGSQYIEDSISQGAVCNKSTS
The test is classed as biochemical. As to conditions: read-out: Ki; cho cell membranes.

Among the data in paper PMC3237054 (2011) are Kb values, retold here.

Sequence of LPA1 (hLPA1) (Q92633 whole entry): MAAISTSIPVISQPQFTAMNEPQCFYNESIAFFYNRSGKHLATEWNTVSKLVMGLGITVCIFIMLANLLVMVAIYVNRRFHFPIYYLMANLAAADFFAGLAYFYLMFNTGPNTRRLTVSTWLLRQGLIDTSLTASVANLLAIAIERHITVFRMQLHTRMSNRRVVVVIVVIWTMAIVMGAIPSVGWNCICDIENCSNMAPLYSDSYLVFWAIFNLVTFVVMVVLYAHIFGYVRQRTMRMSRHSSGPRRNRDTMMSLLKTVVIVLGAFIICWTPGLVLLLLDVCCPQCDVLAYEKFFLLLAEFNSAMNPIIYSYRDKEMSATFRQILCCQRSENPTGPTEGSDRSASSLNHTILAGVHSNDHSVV

For VPC51299 [6.1], the Kb on LPA1 (hLPA1) was 0.143 µM; on LPA3 (hLPA3) it was 0.512 µM.
